Laboratory results published in the METLIN SMRT retention time set (Domingo-Almenara et al. 2019).

Assay: gradient 5% acetonitrile 3 min, to 50% in 2 min, to 85% in 15 min, held 3 min, 100 µL/min
Details: column: Zorbax Extend-C18 2.1 x 50 mm; eluents: water / acetonitrile, 0.1% formic acid
Summary of the method: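 Retention times of pure standards were taken from adduct peaks that were selected by computer and manually inspected. Over 3 months, mixtures of ~100 molecules were run by HPLC–quadrupole time-of-flight mass spectrometry in positive and negative ionization mode. The Zorbax Extend-C18 column (2.1 × 50 mm, 1.8 μm) ran at 100 μL/min in water and acetonitrile, each containing 0.1% formic acid, with 40 μL dead volume and 900 μL dwell volume.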

Structure (SMILES)	RP-LC retention time
O=C(Nc1cnn(-c2ncncc2N2CCOCC2)c1)C1CCCC1	624 s
CCOC(=O)CNC(=O)NCC(c1cccnc1)c1c[nH]c2ccccc12 (stereo not drawn)	598 s
Cc1cc(=O)n(CC(=O)NCc2ccc(F)cc2F)c(N2CCOCC2)n1	756 s
Cn1ccnc1C(=O)N1CC(n2cc(C(=O)N3CCOCC3)nn2)C1	581 s
O=C(Nc1cc(-c2cccs2)nn1CCO)C1COc2ccccc2O1 (stereo not drawn)	784 s
O=c1c2cc3c(cc2nc(SCc2nc(-c4ccc(F)cc4)no2)n1Cc1ccncc1)OCO3	799 s
COc1ccc(-c2cc(C(=O)N(C)C3CCCCC3)nn2C2CCS(=O)(=O)C2)cc1 (stereo not drawn)	924 s
COc1cc(Nc2nc(C(=O)N3CCOCC3)cc3occc23)cc(OC)c1OC	710 s
COc1ccc(-c2cn3c(CC(=O)Nc4cccnc4)csc3n2)cc1OC	581 s
CCN(CC)c1ccc(/C=C2\SC(=O)NC2=O)cc1	876 s
COc1ccc2c(c1)C1(CCN(S(=O)(=O)c3cccc(F)c3)C1)C(=O)N2C (stereo not drawn)	874 s
Cc1noc(C)c1-c1ccc(S(=O)(=O)NCc2ccc(Cl)cc2)cc1	969 s
COc1ccc(CN2CCC3(CC2)CC(O)CCO3)c(OC)c1 (stereo not drawn)	581 s
O=C([C@@H]1C[C@H](F)CN1C(=O)c1cccc(Br)c1)N1CCCCC1	742 s
Cc1cnc(C(=O)NC2C[C@H]3CC[C@@H](C2)N3C(=O)CCC2CCCCC2)cn1 (stereo partly drawn)	821 s
CCN(CC)C(=O)c1ccc2c(c1)N(CC(=O)N1CCCCC1)C(=O)C1CCCCN21 (stereo not drawn)	795 s
Nc1ccc2nc3ccc(=O)cc-3n(-c3ccccc3)c2c1	614 s
COc1ccc2c(c1)C1(CCN(C(=O)c3cccc(Br)c3)C1)C(=O)N2 (stereo not drawn)	754 s
CC1CCCN(S(=O)(=O)c2cc(C(=O)N3CCCc4ccccc43)n(C)c2)C1 (stereo not drawn)	1060 s

Structure (SMILES)	RP-LC retention time
COc1ccc(OC)c(S(=O)(=O)N2CCCC(C)(C(=O)NCc3ccc(F)cc3)C2)c1 (stereo not drawn)	916 s
CCc1noc(NC(C)=O)c1-c1ccc(OC)c(S(=O)(=O)Nc2ccc(S(N)(=O)=O)cc2)c1	655 s
COc1c(C(=O)NC(C)C)sc2ccc(F)cc12	952 s
CC(=O)CC(=O)Nc1ccc2ccccc2c1	800 s
O=C(Nc1ccc2c(c1)CN(C(=O)C1CC1)CC2)NC1CC1	632 s
c1ccc(CCCCN2CCC(c3ccccc3)CC2)cc1	851 s
CC1CCN(S(=O)(=O)c2ccc(-c3nnc(C4CCC4)o3)o2)CC1	1030 s
O=C(Cn1ccc2sccc2c1=O)Nc1ccc(F)cc1	728 s
Cc1cc(C)n(CCC(=O)NCC23CCC=C2N(CC2CC2)C(=O)CC3)n1 (stereo not drawn)	698 s
C=CCN1CCc2c(cc(O)c(O)c2Cl)C(c2ccccc2)C1 (stereo not drawn)	666 s
COC(=O)c1cc(OCC(=O)Nc2ccc3c(c2)OCO3)c2cc(F)ccc2n1	778 s
COc1cc(-c2noc(Cc3nnc(-c4ccc(F)cc4)o3)n2)cc(OC)c1OC	916 s
O=C(CSc1ccc(F)cc1)Nc1ccc2c(c1)N(C(=O)c1ccccc1)CCC2	874 s
CN(C)C(=O)c1ccc2c(c1)N(CC(=O)Nc1ccc(F)cc1)C(=O)CS2	704 s
O=C(Nc1nnc(SCCN2CCOCC2)s1)C1CCC1	544 s
CCCNc1cc(N2CCC(CCC(=O)N(C)CCC)CC2)ncn1	589 s
O=C(C1CCOC1)N1CCCn2nc(-c3ccc(Cl)cc3)cc2C1 (stereo not drawn)	767 s
CC1CCCN(CCCNC(=O)CCC(=O)N2CCc3c(c(C(=O)N4CCCCC4)nn3C)C2)C1 (stereo not drawn)	594 s
O=C(Cn1cnc(-c2ccc(F)cc2)cc1=O)NCc1cccs1	703 s

More lines, now with the values ahead:

RP-LC retention time	Structure (SMILES)
926 s	COc1ccc(C2Cn3nnc(C(=O)NCc4cc(OC)ccc4OC)c3CO2)cc1 (stereo not drawn)
962 s	CCn1cc(CCN2CCN(S(=O)(=O)c3cccs3)CC2)c2cccnc21
961 s	CCOc1ccccc1NC(=O)c1cnc2c(c1)c(=O)n(C)c(=O)n2-c1ccccc1
811 s	CCC(=O)Nc1ccc(SCc2nnc(-c3ccccc3)o2)cc1
1260 s	Clc1ccc(Cl)c(-c2ccc(-c3nn4c(-c5ccco5)nnc4s3)o2)c1
632 s	Cc1cccc(NC(=O)C2CCN(S(=O)(=O)c3cn(C(C)C)cn3)CC2)n1
756 s	Cc1ccc(-n2nc(C)c3c(C)c(CCC(=O)N4CCN(c5ccccn5)CC4)c(C)nc32)cc1
1040 s	Cc1ccc(C)c(S(=O)(=O)N2CC(c3nc(Cc4ccccc4)no3)C2)c1
570 s	COc1cc2ncc(C(=O)c3ccc(C)c(C)c3)c(N3CCN(C)CC3)c2cc1OC
658 s	COc1ccc(NC(=O)Nc2c(-c3cccc(C)c3)nc3ccccn23)cc1
1100 s	Cc1onc(-c2ccccc2Cl)c1C(=O)Nc1nc(-c2ccc([N+](=O)[O-])cc2)cs1
894 s	Cc1ccc(NC(=O)C2CCN(S(C)(=O)=O)c3ccccc3O2)c(C)c1 (stereo not drawn)
593 s	Cn1nc(-c2ccc(F)cc2)cc1C(=O)NCCN1CCN(C(=O)c2cccs2)CC1
852 s	CCC(=O)N1CCc2ccccc2C1C(=O)N1CCN(c2ccccc2)CC1 (stereo not drawn)
932 s	Cc1ccc2[nH]cc(CCNC(=O)c3cccc(NC(=O)c4nnc(C5CC5)s4)c3)c2c1
670 s	Cc1ccc2nc(C(=O)NC(C)c3ccc(F)cc3)cn2c1 (stereo not drawn)
842 s	Cc1nc2nc(-c3ccccc3)nn2c(C)c1CC(=O)N(C)Cc1ccccc1
872 s	CCCn1ccc2sc(C)c(C(=O)N3CCN(c4ccc(F)cc4)CC3)c2c1=O
933 s	COc1cccc(CNS(=O)(=O)c2ccc3c(c2)C(=O)N(C)c2ncccc2O3)c1
1300 s	Cc1cc(C(=O)Nc2ccccc2F)nc2cc(-c3cccs3)nn12
729 s	COC(=O)N(C)c1c(N)nc(-c2nn(Cc3ccccc3F)c3ncccc23)nc1N
750 s	CCc1ccc(Nc2nc(C(=O)NCCCOC)nc3ccccc23)cc1
683 s	CC(C)Oc1ccc(CNC(=O)C2CCN(c3cnc4nccnc4c3)CC2)cc1
1220 s	Cc1ccc(-c2nnc(Cc3nc(-c4ccc(Br)cc4)no3)o2)cc1F
702 s	Cc1ccc(CNC(=O)C2(C)Oc3cccnc3NC2=O)cc1 (stereo not drawn)

RP-LC retention time	Structure (SMILES)
609 s	CCc1ccc(NC(=O)Nc2ccc3nc(N4CCN(C)CC4)cc(C)c3c2)cc1
1080 s	O=C(CN1CCCCC1c1nc(-c2ccc(F)cc2)no1)NCc1ccc(F)cc1 (stereo not drawn)
858 s	COc1ccc2c(c1)c(N1CCCC1=O)c(C(=O)NCCc1ccc(OC)c(OC)c1OC)n2C
952 s	CCc1nc(-c2csc(S(=O)(=O)N3CCC(C(=O)Nc4ccccc4)CC3)c2)no1
645 s	O=C(CCc1c(-c2ccc(F)cc2)nc2ccccn12)NCc1cccc(F)c1
607 s	CCc1nn(CC(=O)N2CCN(c3ccccn3)CC2)c(=O)c2cc3ccccc3n12
575 s	COCCCNC(=O)CN1CCN(c2cc(C(=O)O)c3cc(NC(=O)C4CCCC4)ccc3n2)CC1
688 s	Cc1cccc(-n2ncc(C(=O)N3CCN(c4ccccn4)CC3)c2-n2cccc2)c1
693 s	COc1ccc(Cl)cc1NC(=O)C1CCCN(c2nc3ccccc3nc2C(F)(F)F)C1 (stereo not drawn)
832 s	CCc1noc2nc(C)n(CC(=O)NCc3ccccc3OC)c(=O)c12
586 s	COc1ccc(C(=O)Nc2cccc(-c3csc(C)n3)c2)nn1
1300 s	Cc1cccc(NC(=O)c2c(O)c3cccnc3n(-c3ccccc3)c2=O)c1C
825 s	Cc1cc(C)cc(C(=O)N2CCC(n3c(-c4ccco4)nc4cccnc43)C2)c1 (stereo not drawn)
1020 s	O=C(NCCCc1ccccc1)C1CCCN(c2nccnc2Oc2ccccc2)C1 (stereo not drawn)
1130 s	O=c1c2ccccc2c(-c2nc(-c3cccnc3)no2)cn1-c1cccc(Cl)c1
872 s	Cc1ccc(S(=O)(=O)N2CCCC2C(=O)Nc2nnc(-c3ccc(C)c(C)c3)o2)cc1 (stereo not drawn)
1080 s	CC(C)Oc1ccc(-c2noc(Cn3nc(-c4ccc5c(c4)OCO5)ccc3=O)n2)cc1
592 s	OCCN1CCN(c2ncnc3c2cnn3-c2cccc(Cl)c2)CC1
754 s	COc1cccc(-c2cc(C(=O)N3CCN(c4ncccn4)CC3)n(C)n2)c1
1070 s	CCOc1ccc(-c2noc(Cn3nc(-c4cccc(OC)c4)ccc3=O)n2)cc1
954 s	CCc1noc(CN2N=C(C(=O)N3CCC(C)CC3)S(=O)(=O)c3ccc(C)cc32)n1
847 s	Cc1ccc(NC(=O)C2CC(=O)N(CCc3c[nH]c4ccc(F)cc34)C2)c(C)c1 (stereo not drawn)
594 s	O=C(Nc1cccnc1)c1ccccc1OCc1ccc(S(=O)(=O)N2CCOCC2)o1
903 s	Cc1cc(-c2nnc(-c3ccccc3)o2)c(C)n1CC(=O)NCc1ccccc1
796 s	CCC(CC)C(=O)N(C)CCc1noc(-c2ccc(C(=O)N3CCCC3)cc2)n1
